The subject of experiment [1] is Guinea pigs sensitized to ovalbumin (anaphylactic shock). The experiment in a line: Anaphylaxis in guinea pigs: protection against death after ovalbumin challenge (survival). In kind it is in vivo, guinea pig. To be noted: Cavia porcellus, estimated ED50, oral, protection against death after i.v. 0.6 mg ovalbumin, read-out: Anaphylaxis in guinea pigs oral effective dose in mg/kg: Survival. The method, then: The anti-anaphylactic and antihistaminic effects of the subject compounds (I) and salts thereof are studied "in vivo" in guinea pigs.
Guinea pigs, weighing between 400 and 500 g, are sensitized to ovalbumin by subplantar (s.p.) injection of 0.05 ml of antiserum in the left hind paw. The animals are then starved and orally treated, 24 hours after the sensitization, with saline (=control animals) or a particular dose of the compound under investigation.
The histamine injection (at a dose of 50 μg) was given s.p. in the right hind paw 2 hours after the oral pretreatment with the compound. The diameters of both hind paws are first measured before the histamine injection is given and again 10 minutes thereafter. The animals are challenged intravenously with 0.6 mg of ovalbumin 30 minutes after the histamine injection. All control animals develop typical primary anaphylactic shock symptoms (coughing, difficult breathing, convulsions) and 85% of these control animals die within 15 minutes after the ovalbumin injection. Protection against death is used as the criterion for possible drug effects and the estimated ED50 -value, i.e. the oral dose whereby the protection is observed in 50% of the guinea pigs, is listed in the tables below.

Experiment [2] has as its system Guinea-pig ileum strips, histamine-induced contraction. The experiment in a line: Anti-histamine activity in "vitro": histamine-induced spasms of guinea-pig ileum strips. In kind it is cell-based. The following applies: Cavia porcellus, 5 min, histamine 0.5 mg/liter, 5 minutes incubation, concentration giving significant inhibition (50%) of the contraction. As to the method: The histamine--(0.5 mg/liter) induced spasms are recorded Kymographically with an isotonic lever giving a 5-fold magnification.

Experiment [3] relates to histamine paw oedema in guinea pigs. The experiment in a line: Histamine paw oedema in guinea pigs. The class given is in vivo, guinea pig. To be noted: Cavia porcellus, oral dose giving paw reaction below 10 units 10 minutes after 50 μg histamine s.p., 2 hours after dosing, read-out: Anaphylaxis in guinea pigs oral effective dose in mg/kg: Histamine oedema. As to the method: Guinea pigs, weighing between 400 and 500 g, are sensitized to ovalbumin by subplantar (s.p.) injection of 0.05 ml of antiserum in the left hind paw. The animals are then starved and orally treated, 24 hours after the sensitization, with saline (=control animals) or a particular dose of the compound under investigation. The histamine injection (at a dose of 50 μg) was given s.p. in the right hind paw 2 hours after the oral pretreatment with the compound.

[4] abbreviates: Table I-a, read-out: Histamine in "vitro" (ileum) effective conc.
[5] abbreviates: Table I-d, read-out: Histamine in "vitro" (ileum) effective dose.

Structures are written as SMILES. In brackets after ≈: the same amount, converted by molar mass. Counter-ions that a name gives are not always drawn. Like-named read-outs stand apart in the source and are kept apart here. A value given as a limit tells only on which side of the number the result lay.

On to `Cc1ccc2c(c1)[nH]c(=O)n2CCN1CCN(C(c2ccccc2)c2ccccc2)CC1` [1-{2-[4-(diphenylmethyl)-1-piperazinyl]ethyl}-1,3-dihydro-5-methyl-2H-benzimidazol-2-one], for which the ED50 in experiment [1] (Table I-a) is 1.25 mg/kg. In addition, the IC50 in experiment [2] (setting [4]) was determined as 0.01 µg/mL (≈ 0.0234 µM). Further, the minimal effective dose in experiment [3] (Table I-a) stood at 1.25 mg/kg.

Regarding `O=c1[nH]c2ccccc2n1CCCN1CCC(OC(c2ccccc2)c2ccccc2)CC1` [1-{3-[4-(diphenylmethoxy)-1-piperidinyl]-propyl}-1,3-dihydro-2H-benzimidazol-2-one], the ED50 in experiment [1] (Table I-d) is 0.63 mg/kg. For the same compound, the IC50 in experiment [2] (setting [5]) was found to be 0.0025 µg/mL (≈ 0.00566 µM). Also, the minimal effective dose in experiment [3] (Table I-d) came out at 1.25 mg/kg.

As for `c1ccc(C(OC2CCN(CCCn3cnc4ccccc43)CC2)c2ccccc2)cc1` [1-{3-[4-(diphenylmethoxy)-1-piperidinyl]propyl}-1H-benzimidazole], the ED50 in experiment [1] (Table I-d) was 0.16 mg/kg. In addition, in experiment [2] (setting [5]), the IC50 came out at 0.0025 µg/mL (≈ 0.00587 µM). In addition, the minimal effective dose in experiment [3] (Table I-d) is 0.16 mg/kg.

For the compound `C=C(C)n1c(=O)n(CCCN2CCN(C(c3ccccc3)c3ccccc3)CC2)c2ccccc21` [1-{3-[4-(diphenylmethyl)-1-piperazinyl]propyl}-1,3-dihydro-3-(1-methylethenyl)-2H-benzimidazol-2-one], the ED50 in experiment [1] (Table I-a) was 0.16 mg/kg. Further, the IC50 in experiment [2] (setting [4]) turned out to be 0.01 µg/mL (≈ 0.0214 µM). In addition, the minimal effective dose in experiment [3] (Table I-a) stood at 0.31 mg/kg.

As to `O=c1n(CO)c2ccccc2n1CCCN1CCN(C(c2ccccc2)c2ccccc2)CC1` [1-{3-[4-(diphenylmethyl)-1-piperazinyl]propyl}-1,3-dihydro-3-(hydroxymethyl)-2H-benzimidazol-2-one], the ED50 in experiment [1] (Table I-a) is 0.31 mg/kg. The IC50 in experiment [2] (setting [4]) turned out to be 0.01 µg/mL (≈ 0.0219 µM). For the same compound, the minimal effective dose in experiment [3] (Table I-a) amounted to 0.31 mg/kg.

In the case of `Cl.Cl.O=c1n(CCCN2CCN(C(c3ccccc3)c3ccccc3)CC2)c2ccccc2n1Cc1ccccc1` [1-{3-[4-(diphenylmethyl)-1-piperazinyl]propyl}-1,3-dihydro-3-(phenylmethyl)-2H-benzimidazol-2-one dihydrochloride], the ED50 in experiment [1] (Table I-a) is 1.25 mg/kg. Further, the IC50 in experiment [2] (setting [4]) is 0.16 µg/mL. Besides, the minimal effective dose in experiment [3] (Table I-a) was 1.25 mg/kg.

On to `Cn1c(=O)n(CCCN2CCN(C(c3ccccc3)c3ccccc3)CC2)c2ccccc21` [1-{3-[4-(diphenylmethyl)-1-piperazinyl]propyl}-1,3-dihydro-3-methyl-2H-benzimidazol-2-one dihydrochloride. hydrate], for which, in experiment [1] (Table I-a), the ED50 is 1.25 mg/kg. Moreover, the IC50 in experiment [2] (setting [4]) worked out at 0.01 µg/mL. The minimal effective dose in experiment [3] (Table I-a) amounted to 2.5 mg/kg.

With `O=c1[nH]c2cc(C(F)(F)F)ccc2n1CCCN1CCN(C(c2ccccc2)c2ccccc2)CC1` [1-{3-[4-(diphenylmethyl)-1-piperazinyl]propyl}-1,3-dihydro-5-(trifluoromethyl)-2H-benzimidazol-2-one], the ED50 in experiment [1] (Table I-a) is 0.31 mg/kg. In addition, the IC50 in experiment [2] (setting [4]) stood at 0.02 µg/mL (≈ 0.0404 µM). Also, in experiment [3] (Table I-a), the minimal effective dose was 0.31 mg/kg.

As to `Cc1ccc2c(c1)[nH]c(=O)n2CCCN1CCN(C(c2ccccc2)c2ccccc2)CC1` [1-{3-[4-(diphenylmethyl)-1-piperazinyl]propyl}-1,3-dihydro-5-methyl-2H-benzimidazol-2-one], in experiment [1] (Table I-a), the ED50 is 0.08 mg/kg. Moreover, the IC50 in experiment [2] (setting [4]) was 0.01 µg/mL (≈ 0.0227 µM). In experiment [3] (Table I-a), the minimal effective dose is 0.16 mg/kg.

Consider `Cc1ccc2[nH]c(=O)n(CCCN3CCN(C(c4ccccc4)c4ccccc4)CC3)c2c1` [1-{3-[4-(diphenylmethyl)-1-piperazinyl]propyl}-1,3-dihydro-6-methyl-2H-benzimidazol-2-one], for which the ED50 in experiment [1] (Table I-a) is 0.16 mg/kg. Moreover, the IC50 in experiment [2] (setting [4]) stood at 0.01 µg/mL (≈ 0.0227 µM). Besides, in experiment [3] (Table I-a), the minimal effective dose was determined as 0.31 mg/kg.

Regarding `O=c1[nH]c2ccccc2n1CCCCN1CCC(OC(c2ccccc2)c2ccccc2)CC1` [1-{4-[4-(diphenylmethoxy)-1-piperidinyl]butyl}-1,3-dihydro-2H-benzimidazol-2-one], the ED50 in experiment [1] (Table I-d) is 0.63 mg/kg. Moreover, the IC50 in experiment [2] (setting [5]) is 0.005 µg/mL (≈ 0.011 µM). Moreover, the minimal effective dose in experiment [3] (Table I-d) came to 0.31 mg/kg.

As for `c1ccc(C(c2ccccc2)N2CCN(CCCn3c(C4CCCCC4)nc4ccccc43)CC2)cc1` [2-cyclohexyl-1-{3-[4-(diphenylmethyl)-1-piperazinyl]propyl}-1H-benzimidazole], the ED50 in experiment [1] (Table I-b) is 2.5 mg/kg. For the same compound, the IC50 in experiment [2] (Table I-b, read-out: Histamine in "vitro" (ileum) effective conc.) was at least 0.16 µg/mL. Also, the minimal effective dose in experiment [3] (Table I-b) amounted to 2.5 mg/kg.

Turning to `O=C(O)Cn1c(=O)n(CCCN2CCN(C(c3ccccc3)c3ccccc3)CC2)c2ccccc21` [3-{3-[4-(diphenylmethyl)-1-piperazinyl]-propyl}-2,3-dihydro-2-oxo-1H-benzimidazole-1-acetic acid hemihydrate], in experiment [1] (Table I-a), the ED50 is under 2.5 mg/kg. Also, the IC50 in experiment [2] (setting [4]) amounted to 0.08 µg/mL. Further, the minimal effective dose in experiment [3] (Table I-a) was under 2.5 mg/kg.

Regarding `O=c1[nH]c2cc(Cl)c(Cl)cc2n1CCCN1CCN(C(c2ccccc2)c2ccccc2)CC1` [5,6-dichloro-1-{3-[4-(diphenylmethyl)-1-piperazinyl]propyl}-1,3-dihydro-2H-benzimidazol-2one], the ED50 in experiment [1] (Table I-a) is 2.5 mg/kg. Besides, the IC50 in experiment [2] (setting [4]) was at least 0.16 µg/mL. Also, the minimal effective dose in experiment [3] (Table I-a) came to 2.5 mg/kg.

With `O=c1[nH]c2cc(Cl)ccc2n1CCN1CCN(C(c2ccccc2)c2ccccc2)CC1` [5-chloro-1-{2-[4-(diphenylmethyl)-1-piperazinyl]ethyl}-1,3-dihydro-2H-benzimidazol-2-one], the ED50 in experiment [1] (Table I-a) is 0.63 mg/kg. In addition, the IC50 in experiment [2] (setting [4]) worked out at 0.01 µg/mL (≈ 0.0224 µM). For the same compound, in experiment [3] (Table I-a), the minimal effective dose amounted to 1.25 mg/kg.

Take `O=c1[nH]c2cc(Cl)ccc2n1CCCN1CCN(C(c2ccccc2)c2ccccc2)CC1` [5-chloro-1-{3-[4-(diphenylmethyl)-1-piperazinyl]propyl}-1,3-dihydro-2H-benzimidazol-2-one]: in experiment [1] (Table I-a), the ED50 was 0.63 mg/kg. For the same compound, in experiment [2] (setting [4]), the IC50 turned out to be 0.01 µg/mL (≈ 0.0217 µM). Further, the minimal effective dose in experiment [3] (Table I-a) was 1.25 mg/kg.

In the case of `O=c1[nH]c2ccc(Cl)cc2n1CCN1CCN(C(c2ccccc2)c2ccccc2)CC1` [6-chloro-1-{2-[4-(diphenylmethyl)-1-piperazinyl]ethyl}-1,3-dihydro-2H-benzimidazol-2-one], the ED50 in experiment [1] (Table I-a) is 2.5 mg/kg. The IC50 in experiment [2] (setting [4]) is 0.02 µg/mL (≈ 0.0447 µM). For the same compound, the minimal effective dose in experiment [3] (Table I-a) came out at 2.5 mg/kg.

On to `O=c1[nH]c2ccc(Cl)cc2n1CCCN1CCN(C(c2ccccc2)c2ccccc2)CC1` [6-chloro-1-{3-[4-(diphenylmethyl)-1-piperazinyl]propyl}-1,3-dihydro-2H-benzimidazol-2-one], for which the ED50 in experiment [1] (Table I-a) was 0.63 mg/kg. Besides, the IC50 in experiment [2] (setting [4]) amounted to 0.04 µg/mL (≈ 0.0868 µM). In experiment [3] (Table I-a), the minimal effective dose worked out at 0.63 mg/kg.

As for `O=c1[nH]c2ccccc2n1CCN1CCN(C(c2ccccc2)c2ccccc2)CC1` [I-a: L=H, R1=H, R2=H, (CH2)2, R6=H, R7=H, 1-{2-[4-(diphenylmethyl)-1-piperazinyl]ethyl}-1,3-dihydro-2H-benzimidazol-2-one], the ED50 in experiment [1] (Table I-a) was 0.63 mg/kg. Also, in experiment [2] (setting [4]), the IC50 is 0.01 µg/mL (≈ 0.0242 µM). Besides, the minimal effective dose in experiment [3] (Table I-a) was determined as 1.25 mg/kg.

As for `O=c1[nH]c2ccccc2n1CCCN1CCN(C(c2ccccc2)c2ccccc2)CC1` [I-a: L=H, R1=H, R2=H, (CH2)3, R6=H, R7=H, 1-{3-[4-(diphenylmethyl)-1-piperazinyl]propyl}-1,3-dihydro-2H-benzimidazol-2-one], the ED50 in experiment [1] (Table I-a) is 0.1 mg/kg. In addition, the IC50 in experiment [2] (setting [4]) worked out at 0.005 µg/mL (≈ 0.0117 µM). Further, the minimal effective dose in experiment [3] (Table I-a) was determined as 0.31 mg/kg.

With `O=c1[nH]c2ccccc2n1CCCCN1CCN(C(c2ccccc2)c2ccccc2)CC1` [I-a: L=H, R1=H, R2=H, (CH2)4, R6=H, R7=H, 1-{4-[4-(diphenylmethyl)-1piperazinyl]butyl}-1,3-dihydro-2H-benzimidazol-2-one], the ED50 in experiment [1] (Table I-a) is 0.16 mg/kg. In experiment [2] (setting [4]), the IC50 was 0.01 µg/mL (≈ 0.0227 µM). Further, in experiment [3] (Table I-a), the minimal effective dose was 0.31 mg/kg.

With `O=c1[nH]c2ccccc2n1CCCCCN1CCN(C(c2ccccc2)c2ccccc2)CC1` [I-a: L=H, R1=H, R2=H, (CH2)5, R6=H, R7=H, 1-{5-[4-(diphenylmethyl)-1-piperazinyl]pentyl-1,3-dihydro-2H-benzimidazol-2-one dihydrochloride.hydrate], in experiment [1] (Table I-a), the ED50 is 0.63 mg/kg. For the same compound, in experiment [2] (setting [4]), the IC50 worked out at 0.01 µg/mL. Moreover, in experiment [3] (Table I-a), the minimal effective dose was 2.5 mg/kg.

Source of the values: patent US4250176A, “Piperazine derivatives” (priority 1979, dated 1981).
